Key:
HME-RhoC cells [1] = assay: Matrigel invasion (cell motility) assay; type: cell-based, human
Experimental: FIG. 5. Determination of cell invasiveness in the presence and absence of 6-thiopurine and/or a redox agent. The top chamber of a Transwell filter (6.5 mm with 8 μm pores, Costar; Corning, N.Y.) was coated with a 10 μL aliquot of 10 mg/mL Matrigel (BD Biosciences, Bedford Mass.), and the lower chamber of the Transwell was filled with either serum-free or serum-containing media. Sample cells (e.g., 6-TG-resistant HME-RhoC cells) were prepared to resuspend cells in a serum-free medium with 0.1% BSA at a concentration of 4×10^5 cells/mL. At this point, neither 6-thiopurine nor GSNO were added to the cells. The sample cells (0.5 mL) were added to the top chamber of a Transwell filter and were incubated for 24 h at 37° C. in a 10% CO2 incubator. The Transwell filters were fixed with methanol, stained with H&E, and cells in the serum-containing samples were counted. The number of cells that had invaded the serum-free medium-containing lower chambers was used as a control background. Results are given as percent invasion over that seen in HME-RhoC cells (100%) and represent mean and standard error values from triplicate measurements.
FIG. 11. Determination of cell invasiveness in the presence and absence of […] and/or a redox agent. […] The number of cells that had invaded the serum-free medium-containing lower chambers was used as a control background. Results are given as percent invasion over that seen in HME-RhoC cells (100%) and represent mean and standard error values from triplicate measurements.
FIG. 14. Determination of cell invasiveness in the presence and absence of thiopurines and/or redox agents. […] Western blot analysis representing the total expression of RhoC in these cells also is shown. (B) Experimental procedures for the determination of the time-dependent motility of cells using the QCM Cell Invasion Assay kit in the presence and absence of 6-TG and DETA/NO are described elsewhere herein.
The top chamber of a Transwell filter (6.5 mm with 8 μm pores, Costar; Corning, N.Y.) was coated with a 10 μL aliquot of 10 mg/mL Matrigel, and the lower chamber of the Transwell was filled with either serum-free or serum-containing media. Sample cells were prepared to resuspend cells in a serum-free medium with 0.1% BSA at a concentration of 4×10^5 cells/mL. […] The Transwell filters were fixed with methanol, stained with haematoxylin and eosin, and cells in the serum-containing samples were counted. The number of cells that had invaded the serum-free, medium-containing lower chambers was used as a control background.

Rac1 = Rac1 (Homo sapiens, UniProt P63000); assay: Rac1 expression (Western) and Rac1 G-LISA activity in activated T cells; type: cell-based
Experimental: FIG. 26. Determination of Rac1 activity and ERM phosphorylation. […] (A) The soluble cell extract was then used to perform Western blot analyses for Rac1 and the ERM. This cell extract also was used for the co-IP-based ESI-MS analysis (FIG. 8). (B) A Rac1 activity assay was colorimetrically determined using cell extract; the assay was performed with the Rac1 G-LISA Activation Assay Kit (Cat. No. BK125) (Denver, Colo.). To examine the level of phosphorylation of the ERM, cells were cultured in complete RPMI 1640 medium with ˜50 μCi of ^32P/mL before initiating stimulation of T cells. The collected cell extract was nutated with resin coupled with a human ERM (231C2a) antibody (Santa Cruz Biotechnology, CA) at 4° C. for 5 h. […] The immunoprecipitates were then analyzed by SDS-PAGE and autoradiographed. […] The data represented in the figure represent the mean values of triplicate measurements, and the vertical error bar indicates standard errors.

MLC = MLC phosphorylation in A7r5 cells; type: cell-based, rat
Experimental: FIG. 20. Determination of RhoA activity and MLC phosphorylation. […] Cell lysates in a buffer containing 1% NP-40, 10 mM EDTA, and 20 mM TrisHCl (pH 7.4) were centrifuged (50,000×g, 20 min) to remove solid matter. (A) The soluble cell extract was then used to perform Western blot analyses for RhoA and the MLC. This cell extract also was used for the co-IP-based ESI-MS analysis (FIG. 6). (B) A RhoA activity assay was colorimetrically determined using cell extract; the assay was performed with the RhoA G-LISA Activation Assay Kit (Cat. No. BK124) (Denver, Colo.). To examine the level of phosphorylation of the MLC, cells were cultured with ˜5 μCi of ^32P in 1 mL of phosphate-free DMEM. The collected cell extract was nutated with resin coupled with a macrophage myosin II antibody at 4° C. for 5 h. Resin was collected by centrifugation, and proteins bound to the resin were washed and eluted with a buffer (80° C.) containing […], 5 mM DTT, and 10 mM TrisHCl (pH 6.8). The immunoprecipitates were then analyzed by SDS-PAGE and autoradiographed. The values of RhoA activity and the MLC phosphorylation determined from untreated cells were set at 100%. […] The data represented in the figure represent the mean values of triplicate measurements, and the vertical error bar indicates standard errors.

HME-RhoC cells [2] = assay: MTT cell viability and caspase-3/8 assays; type: cell-based, human
Excerpt: FIG. 25. […] (B) Caspase-3/8 assay: the apoptotic activity of sample cells treated with the apoptotic inducer was set to be 100%, and other results were then expressed as normalized values against the mean value associated with the treatment with the apoptotic inducer. For both (A) and (B), all values represent the mean values and standard error values from triplicate measurements.

HME-RhoC cells [3] = assay: Apoptosis / cell population of cells treated with thiopurines; type: cell-based, human; conditions: for cells that underwent apoptosis within a day: thiopurine 1 μM
Excerpt: RhoC-overexpressed mammary epithelium (HME-RhoC) cells were used to examine the effect of 6-TG and/or a redox agent on RhoC.

Q: For `Nc1nc2nc[nH]c2c(=S)[nH]1` [6-TG, 6-thioguanine], which cell motility (HME-RhoC cells [1]; 6-TG 1 μM alone, three or more consecutive days, FIG. 14A) is on record?
A: gradual but significant diminution of cell motility

Q: What about the invasive cell motility (HME-RhoC cells [1]; 6-TG 1 μM with DETA/NO (or GSNO) 10 μM, three days, FIG. 14A) of the same molecule?
A: complete termination of the invasive cell motility

Q: What about the Rac1 inactivation (Rac1; 6-TG 1 μM, within 3 days, FIG. 26B) of the same molecule?
A: significant portion of Rac1 was inactivated

Q: What about the “fraction of inactive Rac1” value (Rac1; 6-TG plus DETA/NO 10 μM) of the same molecule?
A: synergistically increases the fraction of inactive Rac1

Q: And the “cellular expression level of Rac1 and ERM” value (Rac1; presence or absence of 6-TG, FIG. 26A)?
A: not changed

Q: And the “dephosphorylated form of the MLC” value (MLC; 6-TG plus DETA/NO 10 μM, FIG. 20B)?
A: synergistically increases

Q: And the MLC dephosphorylation (MLC; 6-TG, after 3 days, FIG. 20B)?
A: large portion of the MLC in A7r5 cells was observed to have been dephosphorylated

Q: And the “apoptotic effect (caspase, FIG. 25B)” value (HME-RhoC cells [2]; 6-TG)?
A: minimal

Q: And the “viability and caspase activity” value (HME-RhoC cells [2]; 6-TG and DETA/NO, FIG. 25)?
A: minimally affected

Q: What about the “cell viability (MTT, FIG. 25A)” value (HME-RhoC cells [2]; 6-TG for 3 days) of the same molecule?
A: minimally affected

Q: What about the “cells persistently resisting additional treatments (of the initial cells)” value (HME-RhoC cells [3]; 6-TG 1 μM) of the same molecule?
A: 20%-25%

Q: And the “cells that underwent apoptosis within a day” value (HME-RhoC cells [3])?
A: ~80%

Q: `Nc1nc2[nH]c(S)nc2c(=O)[nH]1` [8-TG, 2-amino-8-mercapto-1H-purin-6(9H)-one] was tested. Which “invasive mobility after 8-TG followed by NO donor” value (HME-RhoC cells [1]; 8-TG for a week, then DETA/NO or GSNO 10 μM every 20 or 8 h) did it give?
A: virtually all of the invasive mobility of HME-RhoC cells was immediately terminated

Q: And the “termination of RhoC-mediated cell invasiveness, 8-TG with redox agent versus 6-TG-redox combination” value (HME-RhoC cells [1]; in conjunction with a redox agent)?
A: much more effective than a 6-TG-redox combination

Q: What about the “screen of thiopurine analogs on invasive cell mobility” value (HME-RhoC cells [1]; in the presence of NO donor DETA/NO) of the same molecule?
A: most effectively inhibits

Q: And the “decline of invasive cell mobility over 5 days of continuous treatment” value (HME-RhoC cells [1]; only 8-TG 1 μM, FIG. 11)?
A: ~60%

Q: And the “decline of invasive cell mobility within a day” value (HME-RhoC cells [1]; only 8-TG 1 μM, FIG. 11)?
A: ~10%

Q: What about the “screen of 6-TP isomers on Rac1 activity” value (Rac1; not shown) of the same molecule?
A: most effectively inhibits Rac1 activity

Q: What about the “screen of 6-TP isomers on MLC phosphorylation” value (MLC; not shown) of the same molecule?
A: dephosphorylates the MLC

Q: What about the “viability of cells treated with 8-TG-redox agent” value (HME-RhoC cells [2]; 8-TG for a week followed by NO donor) of the same molecule?
A: almost the same as that of the untreated HME-RhoC cells

Q: And the “delayed minor apoptosis over the course of a week of treatment” value (HME-RhoC cells [3]; 8-TG 1 μM)?
A: ~5%

Q: What about the “cells that underwent apoptosis within a day” value (HME-RhoC cells [3]) of the same molecule?
A: less than 5%

Reference: US8729047B2, “Compositions for inhibiting redox-sensitive GTPases” (Board of Regents, The University of Texas System, priority 2010, dated 2014)
